According to patent US20230348487A1, “2-AMINOPYRIMIDINE COMPOUND AND PHARMACEUTICAL COMPOSITION THEREOF AND APPLICATION THEREOF” (GUANGZHOU SALUSTIER BIOSCIENCES CO., LTD., priority 2021, published 2023):
Values joined by “and” are separate entries in the source; they are usually repeats but may differ in a detail not shown here. Equal values may be shown once. Read-outs that look alike come from different tables or passages of the source.

Assays:
[1] = test system: human chronic myeloid leukemia cell line K562; experiment: CCK-8 in vitro proliferation inhibition; format: cell-based; conditions: read-out: Inhibitory activity (IC50) on cell proliferation, K562
Procedure: (§1) Cell lines: human chronic myeloid leukemia cell line K562, human acute myeloid leukemia cell line U937, human T lymphocyte leukemia cell line HuT78, and human T lymphoblastic lymphoma cell line Jurkat. Cells were purchased from the Chinese Academy of Sciences Stem Cell Bank or ATCC.
(§2) […] were cultured overnight and suspended cells were directly stimulated with drugs. […] Two repeats were set for each concentration, with a final volume of 200 μL. […] The absorbance values at 450 nm and 650 nm were measured using a microplate reader, and the increment Z (A450-A650) was derived. The inhibitory rate of drugs on cell growth was calculated by GraphPad Prism 8.0.0 through the following formula:
(§3) Inhibition rate (%)(ODcontrol−ODdosing)/ODcontrol×100%
(§4) The half inhibitory concentration (IC50) was calculated. Every experiment was repeated at least three times.

[2] = test system: human acute myeloid leukemia cell line U937; experiment: CCK-8 in vitro proliferation inhibition; format: cell-based; conditions: read-out: Inhibitory activity (IC50) on cell proliferation, U937
Procedure: as §1, §2, §3, §4

JAK2 = JAK2 (Homo sapiens (Human), UniProt O60674); experiment: Z′-Lyte kinase inhibitory activity test; format: biochemical
Chain of JAK2 (O60674 whole entry): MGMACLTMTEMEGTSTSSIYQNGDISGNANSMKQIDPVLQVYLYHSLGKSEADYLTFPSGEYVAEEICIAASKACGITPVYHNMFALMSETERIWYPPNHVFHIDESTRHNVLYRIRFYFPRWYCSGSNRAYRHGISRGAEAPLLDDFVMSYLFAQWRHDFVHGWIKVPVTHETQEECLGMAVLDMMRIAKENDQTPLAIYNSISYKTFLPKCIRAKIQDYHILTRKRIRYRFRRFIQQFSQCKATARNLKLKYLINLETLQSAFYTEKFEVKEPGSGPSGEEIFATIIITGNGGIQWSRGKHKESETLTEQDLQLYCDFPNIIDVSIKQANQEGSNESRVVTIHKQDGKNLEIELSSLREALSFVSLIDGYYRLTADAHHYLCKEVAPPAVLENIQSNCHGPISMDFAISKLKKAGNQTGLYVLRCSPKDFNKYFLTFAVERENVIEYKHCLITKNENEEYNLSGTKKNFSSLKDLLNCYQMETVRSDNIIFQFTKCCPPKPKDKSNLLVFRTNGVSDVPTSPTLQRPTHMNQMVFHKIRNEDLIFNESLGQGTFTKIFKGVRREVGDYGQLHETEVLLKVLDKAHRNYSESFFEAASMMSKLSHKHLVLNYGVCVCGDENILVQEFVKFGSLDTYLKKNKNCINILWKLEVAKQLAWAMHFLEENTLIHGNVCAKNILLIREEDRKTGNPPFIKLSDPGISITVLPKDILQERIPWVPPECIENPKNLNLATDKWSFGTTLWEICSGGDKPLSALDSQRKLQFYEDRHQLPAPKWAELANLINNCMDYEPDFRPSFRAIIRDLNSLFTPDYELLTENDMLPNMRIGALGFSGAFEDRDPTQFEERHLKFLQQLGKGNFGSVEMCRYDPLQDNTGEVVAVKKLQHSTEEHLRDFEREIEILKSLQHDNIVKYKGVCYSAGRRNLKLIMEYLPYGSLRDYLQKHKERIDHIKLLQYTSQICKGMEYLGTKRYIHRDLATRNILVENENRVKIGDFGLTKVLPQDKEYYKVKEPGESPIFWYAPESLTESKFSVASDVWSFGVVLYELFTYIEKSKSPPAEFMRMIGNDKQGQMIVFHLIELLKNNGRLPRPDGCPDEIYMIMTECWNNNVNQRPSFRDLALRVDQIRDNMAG
Procedure: (§5) Test method: Firstly, test compounds were prepared into 10 mM stock solution with DMSO, and continuously diluted into 10 concentrations at a 3-fold gradient for later use. 5X reaction buffer was diluted with deionized water into 1×reaction buffer (50 mM HEPES pH 7.5, 0.01% Brij-35, 10 mM MgCl2, 1 mM EGTA), which was used to prepare a mixture of kinase and peptide substrate, as well as a phosphorylated peptide substrate solution. The kinase concentration was determined based on enzyme titration, and the final concentration of peptide substrate and phosphorylated peptide substrate was 2 μM. 5 μL of mixture substrate of kinase and peptide substrate was added to each well on the 384 well plate. Then 5 nL of the test compound (starting with a final concentration of 10 μM) was added with an Echo520 Sampler. […] An additional 100% phosphorylation well (5 μL phosphorylated peptide substrate solution), a 0% phosphorylated well (5 μL of a mixture of kinase and peptide substrate, without test compounds and ATP), and a 0% inhibitory well (5 μL of a mixture of kinase and peptide substrate and appropriate concentration of ATP) were set as control. Two repeats were set for each concentration. The above reaction system was incubated at 30° C. for 1.5 hours. […] 2.5 μL of the diluted mixture was added to each well and the system was incubated at 30° C. for another 1 hour. […] The substrate phosphorylation rate was obtained by calculating the ratio, and the activity of the kinase and the effect of the inhibitor on the kinase was further calculated. Every experiment was repeated at least three times.

TYK2 = TYK2 (Homo sapiens (Human), UniProt P29597); experiment: Z′-Lyte kinase inhibitory activity test; format: biochemical; conditions: ATP concentration Km
Chain of TYK2 (P29597 whole entry): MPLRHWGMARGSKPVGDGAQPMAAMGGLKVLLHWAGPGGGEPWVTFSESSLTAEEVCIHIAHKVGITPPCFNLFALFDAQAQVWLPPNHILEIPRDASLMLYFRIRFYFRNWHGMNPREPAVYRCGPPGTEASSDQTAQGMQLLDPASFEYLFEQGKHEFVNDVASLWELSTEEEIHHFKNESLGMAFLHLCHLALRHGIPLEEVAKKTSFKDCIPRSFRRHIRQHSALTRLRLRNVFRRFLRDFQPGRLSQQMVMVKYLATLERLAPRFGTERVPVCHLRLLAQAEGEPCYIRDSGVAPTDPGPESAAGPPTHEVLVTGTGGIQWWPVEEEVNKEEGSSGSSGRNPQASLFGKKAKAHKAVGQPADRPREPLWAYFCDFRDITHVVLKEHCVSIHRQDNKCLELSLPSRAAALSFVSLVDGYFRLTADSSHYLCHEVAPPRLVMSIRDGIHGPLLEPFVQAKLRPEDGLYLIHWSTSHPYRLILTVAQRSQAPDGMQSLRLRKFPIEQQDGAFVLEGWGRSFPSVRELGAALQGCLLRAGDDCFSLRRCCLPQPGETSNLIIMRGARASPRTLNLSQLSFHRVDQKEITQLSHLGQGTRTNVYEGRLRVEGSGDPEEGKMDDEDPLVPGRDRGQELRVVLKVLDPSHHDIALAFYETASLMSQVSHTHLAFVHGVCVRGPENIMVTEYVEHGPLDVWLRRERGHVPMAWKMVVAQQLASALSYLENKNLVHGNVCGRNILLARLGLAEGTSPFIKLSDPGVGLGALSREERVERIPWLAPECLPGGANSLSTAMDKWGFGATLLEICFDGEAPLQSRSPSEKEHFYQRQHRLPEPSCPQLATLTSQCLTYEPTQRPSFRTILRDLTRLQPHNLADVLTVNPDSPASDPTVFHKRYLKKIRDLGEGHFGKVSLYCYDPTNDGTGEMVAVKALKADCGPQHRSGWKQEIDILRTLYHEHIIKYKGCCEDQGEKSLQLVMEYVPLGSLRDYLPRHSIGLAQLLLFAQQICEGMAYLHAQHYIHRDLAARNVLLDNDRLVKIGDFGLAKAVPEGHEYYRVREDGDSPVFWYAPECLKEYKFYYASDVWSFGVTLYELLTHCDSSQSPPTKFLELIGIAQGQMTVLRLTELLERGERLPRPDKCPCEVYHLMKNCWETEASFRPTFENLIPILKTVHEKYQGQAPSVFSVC
Procedure: as §5

JAK1 = JAK1 (Homo sapiens (Human), UniProt P23458); experiment: Z′-Lyte kinase inhibitory activity test; format: biochemical; conditions: ATP concentration Km
Chain of JAK1 (P23458 whole entry): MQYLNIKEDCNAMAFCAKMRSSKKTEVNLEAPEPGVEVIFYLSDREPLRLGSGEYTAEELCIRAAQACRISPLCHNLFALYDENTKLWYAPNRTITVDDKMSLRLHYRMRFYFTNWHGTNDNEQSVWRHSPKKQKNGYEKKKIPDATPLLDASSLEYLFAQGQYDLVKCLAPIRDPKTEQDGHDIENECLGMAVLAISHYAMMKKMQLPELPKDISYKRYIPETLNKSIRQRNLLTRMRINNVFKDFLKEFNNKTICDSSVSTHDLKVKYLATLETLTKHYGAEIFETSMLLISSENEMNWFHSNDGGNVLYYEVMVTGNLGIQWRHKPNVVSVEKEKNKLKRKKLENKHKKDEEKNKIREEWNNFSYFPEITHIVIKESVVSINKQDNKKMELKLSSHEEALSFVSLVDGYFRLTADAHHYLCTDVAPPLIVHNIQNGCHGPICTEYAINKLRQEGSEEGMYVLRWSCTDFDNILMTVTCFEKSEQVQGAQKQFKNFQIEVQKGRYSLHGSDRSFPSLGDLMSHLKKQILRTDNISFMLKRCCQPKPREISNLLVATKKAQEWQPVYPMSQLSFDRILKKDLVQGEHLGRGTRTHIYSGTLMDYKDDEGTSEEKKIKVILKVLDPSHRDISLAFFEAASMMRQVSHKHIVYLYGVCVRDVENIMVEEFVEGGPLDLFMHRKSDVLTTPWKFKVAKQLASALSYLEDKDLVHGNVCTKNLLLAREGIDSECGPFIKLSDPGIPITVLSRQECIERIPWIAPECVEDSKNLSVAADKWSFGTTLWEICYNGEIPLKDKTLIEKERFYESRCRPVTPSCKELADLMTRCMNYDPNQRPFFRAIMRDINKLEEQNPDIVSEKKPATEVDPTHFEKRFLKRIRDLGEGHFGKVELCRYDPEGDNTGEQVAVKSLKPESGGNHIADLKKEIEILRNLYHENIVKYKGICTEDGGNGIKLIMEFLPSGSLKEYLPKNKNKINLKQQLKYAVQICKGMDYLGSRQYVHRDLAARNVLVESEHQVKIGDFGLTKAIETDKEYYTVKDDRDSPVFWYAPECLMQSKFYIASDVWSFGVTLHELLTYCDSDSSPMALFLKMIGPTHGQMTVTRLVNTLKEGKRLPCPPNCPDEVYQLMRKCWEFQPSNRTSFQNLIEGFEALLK
Procedure: as §5

JAK3 = JAK3 (Homo sapiens (Human), UniProt P52333); experiment: Z′-Lyte kinase inhibitory activity test; format: biochemical; conditions: for JAK3 kinase inhibitory activity and selectivity (in words): summary of Table 3, activity maintained at ATP 1 mM
Chain of JAK3 (P52333 whole entry): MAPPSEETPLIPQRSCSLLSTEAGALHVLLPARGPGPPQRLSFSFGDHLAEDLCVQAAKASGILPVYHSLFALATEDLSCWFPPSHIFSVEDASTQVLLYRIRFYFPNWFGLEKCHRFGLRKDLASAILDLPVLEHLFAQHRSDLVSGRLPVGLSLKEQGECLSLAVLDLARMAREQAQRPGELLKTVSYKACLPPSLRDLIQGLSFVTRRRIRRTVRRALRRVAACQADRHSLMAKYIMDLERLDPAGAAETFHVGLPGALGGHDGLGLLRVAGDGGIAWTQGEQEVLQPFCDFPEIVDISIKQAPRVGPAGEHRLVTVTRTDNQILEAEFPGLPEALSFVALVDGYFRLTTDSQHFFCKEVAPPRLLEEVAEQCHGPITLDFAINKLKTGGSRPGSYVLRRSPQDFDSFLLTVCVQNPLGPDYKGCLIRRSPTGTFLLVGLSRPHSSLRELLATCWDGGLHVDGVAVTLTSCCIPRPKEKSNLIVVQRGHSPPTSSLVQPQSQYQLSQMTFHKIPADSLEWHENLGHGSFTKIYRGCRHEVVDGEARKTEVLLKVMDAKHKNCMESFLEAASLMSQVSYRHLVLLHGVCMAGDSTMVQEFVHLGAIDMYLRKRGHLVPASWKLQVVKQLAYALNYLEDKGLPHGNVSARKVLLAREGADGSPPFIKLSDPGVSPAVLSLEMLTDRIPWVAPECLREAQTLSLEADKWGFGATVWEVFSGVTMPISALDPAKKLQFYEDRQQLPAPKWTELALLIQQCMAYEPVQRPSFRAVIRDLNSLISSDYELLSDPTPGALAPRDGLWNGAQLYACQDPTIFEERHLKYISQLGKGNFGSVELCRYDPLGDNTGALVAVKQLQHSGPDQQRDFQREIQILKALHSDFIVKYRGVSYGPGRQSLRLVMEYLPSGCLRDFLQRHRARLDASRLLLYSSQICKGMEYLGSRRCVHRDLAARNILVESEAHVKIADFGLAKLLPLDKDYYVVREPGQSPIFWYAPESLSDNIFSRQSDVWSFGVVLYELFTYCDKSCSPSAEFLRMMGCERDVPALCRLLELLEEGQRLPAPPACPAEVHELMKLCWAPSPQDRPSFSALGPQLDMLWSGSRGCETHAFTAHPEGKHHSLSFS
Procedure: as §5

[3] = test system: human T lymphoblastic lymphoma cell line Jurkat; experiment: CCK-8 in vitro proliferation inhibition; format: cell-based; conditions: Homo sapiens, Jurkat, 72 hours, read-out: Inhibitory activity (IC50) on cell proliferation, JURKAT
Procedure: as §1, §2, §3, §4

[4] = test system: human T lymphocyte leukemia cell line HuT78; experiment: CCK-8 in vitro proliferation inhibition; format: cell-based; conditions: Homo sapiens, HuT78, 72 hours, read-out: Inhibitory activity (IC50) on cell proliferation, HUT78
Procedure: as §1, §2, §3, §4

Compound | IC50 ([1]; Homo sapiens, K562, 72 hours) | IC50 ([2]; Homo sapiens, U-937, 72 hours) | IC50 (JAK2; ATP concentration Km) | IC50 (TYK2) | IC50 (JAK1) | IC50 (JAK3; ATP concentration 1 mM) | IC50 (JAK3; ATP concentration Km) | also measured
C=CC(=O)Nc1cc(Nc2ncc(Cl)c(O[C@@H]3CO[C@H]4[C@@H]3OC[C@H]4F)n2)ccc1N1CCN(CC)CC1 [LS 6-89] | 620 nM | 171 nM | 1.71 µM | 805 nM | 15.6 µM | 0.00654 µM | 0.00426 µM | 
CCN1CCN(Cc2ccc(Nc3ncc(Cl)c(O[C@@H]4CO[C@H]5[C@@H]4OC[C@H]5O)n3)nc2)CC1 [LS 5-54] |  |  |  |  |  |  | 5.75 µM | IC50 (JAK2; ATP concentration Km, in μM): > 10 µM; IC50 (JAK1; in μM): > 10 µM
CN1CCN(c2ccc(Nc3ncc(Cl)c(O[C@@H]4CO[C@H]5[C@@H]4OC[C@H]5O)n3)cc2)CC1 [LS 4-144] |  |  |  |  |  |  | 0.0848 µM | 
C=CC(=O)Nc1cc(Nc2ncc(Cl)c(O[C@@H]3CO[C@@H]4CCO[C@@H]43)n2)ccc1N(C)CCN(C)C [LS 6-121] |  |  |  | 278 nM | 2.93 µM |  |  | IC50 ([2]; 72 hours): 31.3 nM; IC50 (JAK2): 1.06 µM; IC50 (JAK3): 0.0014 µM and 0.0016 µM; JAK3 kinase inhibitory activity and selectivity (in words) (JAK3): strong and selective JAK3 kinase inhibitory activity
CN1CCN(C2CCN(c3ccc(Nc4ncc(Cl)c(O[C@@H]5CO[C@H]6[C@@H]5OC[C@H]6O)n4)cc3Cl)CC2)CC1 [LS 4-104] | 542 nM |  | 0.291 µM |  |  |  |  | IC50 [3]: 2050 nM; IC50 [4]: 2420 nM
COc1cc(Nc2ncc(Cl)c(O[C@H]3CO[C@H]4[C@@H]3OC[C@H]4O)n2)ccc1N1CCN(C)CC1 [LS 4-106] |  |  |  |  |  |  | 0.638 µM | 
C=CC(=O)Nc1cc(Nc2ncc(Cl)c(O[C@@H]3CO[C@H]4[C@@H]3OC[C@H]4OC(C)C)n2)ccc1N(C)CCN(C)C [LS 7-18] |  | 44 nM | 2.66 µM | 4420 nM |  | 0.0023 µM | 0.0015 µM | IC50 (JAK1; in μM): > 10 µM; JAK3 kinase inhibitory activity and selectivity (in words) (JAK3): strong and selective JAK3 kinase inhibitory activity
C=CC(=O)Nc1cc(Nc2ncc(Cl)c(O[C@@H]3CO[C@H]4[C@@H]3OC[C@H]4OCC)n2)ccc1N(C)CCN(C)C [LS 7-13] |  | 29.9 nM | 1.89 µM | 1660 nM | 8.6 µM | 0.0019 µM | 0.0013 µM | JAK3 kinase inhibitory activity and selectivity (in words) (JAK3): strong and selective JAK3 kinase inhibitory activity
CN1CCN(C2CCN(c3ccc(Nc4ncc(Cl)c(O[C@H]5CO[C@H]6[C@@H]5OC[C@H]6O)n4)cc3Cl)CC2)CC1 [LS 3-96] |  |  | 8.16 µM |  |  |  |  | 
C=CC(=O)Nc1cc(Nc2ncc(C)c(O[C@@H]3CO[C@H]4[C@@H]3OC[C@H]4O)n2)ccc1N1CCC(N2CCN(C)CC2)CC1 [LS 5-133, N-(5-((4-(((3R,3aR,6R, 6aR)-6-hydroxyhexahydrofurano[3,2-b]furan-3-yl)oxygen)-5-methylpyrimidin-2-yl)amino)-2-(4-(4-methylpiperazin-1-yl)piperidin-1-yl)phenyl) acrylamide] |  |  | 0.417 µM | 313 nM | 0.685 µM |  | 0.00634 µM | 
CN1CCN(C2CCN(c3c(Cl)cc(Nc4ncc(Cl)c(O[C@@H]5CO[C@H]6[C@@H]5OC[C@H]6O)n4)cc3Cl)CC2)CC1 [LS 5-16] |  |  | 0.949 µM |  | 0.354 µM |  | 0.141 µM | 
N#CC1(c2ccc(Nc3ncc(Cl)c(O[C@@H]4CO[C@H]5[C@@H]4OC[C@H]5O)n3)cc2)CCCC1 [LS 5-58] |  |  | 0.67 µM |  | 0.161 µM |  | 0.12 µM | 
C=CC(=O)Nc1cc(Nc2ncc(Cl)c(O[C@@H]3CO[C@H]4[C@@H]3OC[C@@H]4F)n2)ccc1N(C)CCN(C)C [LS 6-77] | 906 nM | 40.7 nM | 2.47 µM | 921 nM | 33.9 µM | 0.00155 µM | 0.00128 µM | JAK3 kinase inhibitory activity and selectivity (in words) (JAK3): strong and selective JAK3 kinase inhibitory activity
CN1CCN(C2CCN(c3ccc(Nc4ncc(Cl)c(O[C@@H]5CO[C@H]6[C@@H]5OC[C@H]6O)n4)c(Cl)c3)CC2)CC1 [LS 4-148] |  |  |  |  |  |  | 6.47 µM | 
C=CC(=O)Nc1cc(Nc2ncc(Cl)c(O[C@@H]3CO[C@H]4[C@@H]3OC[C@H]4O)n2)ccc1N(C)CCN(C)C [LS 5-88] | 417 nM | 15.3 nM |  | 424 nM | 2.87 µM | 0.00225 µM | 0.00193 µM | IC50 [3]: 111 nM; IC50 [4]: 81.1 nM
C=CC(=O)Nc1cc(Nc2ncc(Cl)c(O[C@@H]3CO[C@H]4[C@@H]3OC[C@@H]4F)n2)ccc1N1CCN(CC)CC1 [LS 6-78] | 525 nM | 146 nM | 1.67 µM | 912 nM | 12.6 µM | 0.00714 µM | 0.00402 µM | 
C=CC(=O)Nc1cc(Nc2ncc(Cl)c(O[C@@H]3CO[C@H]4[C@@H]3OC[C@H]4F)n2)ccc1N(C)CCN(C)C [LS 6-88] |  |  |  | 930 nM | 87.1 µM |  |  | IC50 ([1]; 72 hours): 410 nM; IC50 ([2]; 72 hours): 50.3 nM; IC50 (JAK2): 1.72 µM; IC50 (JAK3): 0.00135 µM and 0.00153 µM; JAK3 kinase inhibitory activity and selectivity (in words) (JAK3): strong and selective JAK3 kinase inhibitory activity
CN1CCN(c2ccc(Nc3ncc(Cl)c(O[C@@H]4CO[C@H]5[C@@H]4OC[C@H]5O)n3)cc2Cl)CC1 [LS 4-142] |  |  |  |  |  |  | 0.0495 µM | 
C=CC(=O)Nc1cc(Nc2ncc(Cl)c(O[C@@H]3CO[C@H]4[C@@H]3OC[C@H]4OC)n2)ccc1N1CCN(C)[C@@H](C)C1 [LS 6-49] | 371 nM | 79.4 nM | 1.1 µM | 1190 nM | 4.69 µM | 0.00292 µM | 0.0017 µM | JAK3 kinase inhibitory activity and selectivity (in words) (JAK3): strong and selective JAK3 kinase inhibitory activity
C=CC(=O)Nc1cc(Nc2ncc(Cl)c(O[C@@H]3CO[C@H]4[C@@H]3OC[C@H]4O)n2)c(OC)cc1N1CCC(N2CCN(C)CC2)CC1 [LS 5-3] | 376 nM | 5380 nM |  |  |  |  | 0.133 µM | IC50 [3]: 8670 nM; IC50 [4]: 8080 nM; IC50 (JAK2; ATP concentration Km, in μM): > 10 µM; IC50 (JAK1; in μM): > 10 µM
C=CC(=O)Nc1cc(Nc2ncc(Cl)c(O[C@@H]3CO[C@H]4[C@@H]3OC[C@H]4OC)n2)ccc1N1CCOCC1 [LS 6-48] | 1550 nM | 403 nM | 1.13 µM | 637 nM | 2.75 µM | 0.0261 µM | 0.00387 µM | 
COc1cc(N2CCC(N3CCN(C)CC3)CC2)ccc1Nc1ncc(Cl)c(O[C@H]2CO[C@H]3[C@@H]2OC[C@H]3O)n1 [LS 4-100] |  |  |  |  |  |  |  | IC50 (JAK3; ATP concentration Km, in μM): > 10 µM
CN1CCN(C2CCN(c3ccc(Nc4ncc(Cl)c(O[C@@H]5CO[C@H]6[C@@H]5OC[C@@H]6O)n4)cc3Cl)CC2)CC1 [LS 4-97] |  |  | 0.406 µM |  |  |  |  | 
C=CC(=O)Nc1cc(Nc2ncc(Cl)c(O[C@@H]3CO[C@H]4[C@@H]3OC[C@@H]4F)n2)ccc1N1CCC(N2CCN(C)CC2)CC1 [LS 6-59] |  |  |  | 435 nM | 7.04 µM |  |  | IC50 ([1]; 72 hours): 281 nM; IC50 ([2]; 72 hours): 129 nM; IC50 (JAK2): 1.08 µM
C=CC(=O)Nc1cc(Nc2ncc(Cl)c(O[C@@H]3CO[C@H]4[C@@H]3OCC4(F)F)n2)ccc1N(C)CCN(C)C [LS 6-105] |  |  |  | 272 nM | 4.22 µM |  |  | IC50 ([1]; 72 hours): 345 nM; IC50 ([2]; 72 hours): 33.8 nM; IC50 (JAK2): 0.589 µM; IC50 (JAK3): 0.00113 µM and 0.00132 µM; JAK3 kinase inhibitory activity and selectivity (in words) (JAK3): strong and selective JAK3 kinase inhibitory activity
Cc1cc(Nc2ncc(Cl)c(O[C@@H]3CO[C@H]4[C@@H]3OC[C@H]4O)n2)cnc1N1CCC(N2CCN(C)CC2)CC1 [LS 4-150] |  |  |  |  |  |  | 0.084 µM | 
